This note sets out measurements from ChEMBL document CHEMBL3421569, “Stemistry: the control of stem cells in situ using chemistry” (2015).

Structures are written as SMILES. Where only a bound is given, the exact number is not on record here.

The nature of assay [1]: Induction of human ESC differentiation assessed as increase in microphthalmia-associated transcription factor expression measured over 8 weeks relative to total pigmented area. It counts as functional, Embryonic stem cell.
A short description of assay [2]: Induction of human ESC differentiation assessed as appearance of pigmented area measured over 8 weeks relative to control. It is filed as functional, Embryonic stem cell.

Turning to `NC(=O)c1cccnc1` [NIACINAMIDE], the Activity in assay [1] is reported as 5%; in assay [2], more than 70%.
